According to patent US8192949B2, “Microaggregates including endothelial cells” (priority 2005, dated 2012):

Tests used:
[1] = tested on: capillary-associated cells (mostly endothelial cells) in neuroendocrine (pulmonary carcinoid) tumor microclusters; assay: In situ microcapillary viability assay (ISMCVA), fast green/H&E dye exclusion on tumor microclusters; assay type: cell-based, human; details: microclusters cultured for 96 hours in presence of bevacizumab; FIGS. 3B and 4B
Experimental: (§1) Solid tumors are minced to pieces smaller than 1 mm (small enough to be aspirated into a standard disposable 10 ml pipette) with high quality curved surgical scissors. Medium in which said tumors may have been transported is reserved, along with the supernatant from the tissue mince. Scissor-minced tumor pieces are digested with collagenase/DNase in RPMI-1640 containing antibiotics and 10% fetal calf serum. Specimens are digested in 50 ml disposable polypropylene centrifuge tubes, assisted by gentle mixing with plastic-coated, magnetic stirring bars over a stirring plate. Specimens are thusly mixed until complete gross digestion has taken place—typically about 2-3 hours for a 1-3 gram specimen. […]
(§2) Viable microaggregates are enriched from medium containing a mixture of microclusters that exist in the minced, digested tissue along with single cells, normal cells, red blood cells, dead cells, and debris by means of “quickspins.” Quickspins consist of repeated very brief centrifugations at 50-500×g, in which the centrifuge tube is first mixed by moderate hand-shaking, placed in a standard, room temperature, preparatory centrifuge, and then accelerated to the desired speed (determined for each centrifuge by empiric trials) and then immediately turned off once the centrifuge has reached the desired speed and then allowed to coast to a stop. […]

[2] = tested on: tumor cells in neuroendocrine (pulmonary carcinoid) tumor microclusters; assay: as above; assay type: cell-based, human; details: microclusters cultured for 96 hours in presence of bevacizumab; FIGS. 3B and 4B
Experimental: as §1, §2

In the case of bevacizumab, the “viability of capillary-associated cells (fast green staining)” value [1] is reported as “most capillary-associated cells are dead” and the “viability of tumor cells (fast green / H/E staining)” value [2] is reported as “tumor cells remain viable”.
